# Patent US10757937B2, “Sulfonamides that activate ABA receptors” (The Regents of the University of California, priority 2014, dated 2020)
# Target: T1, PYL4 (Arabidopsis thaliana, UniProt O80920)
# T1 construct: 6X-His; made in house; host or cells: E. coli BL21[DE3]pLysS
# T1 sequence (O80920 1-207): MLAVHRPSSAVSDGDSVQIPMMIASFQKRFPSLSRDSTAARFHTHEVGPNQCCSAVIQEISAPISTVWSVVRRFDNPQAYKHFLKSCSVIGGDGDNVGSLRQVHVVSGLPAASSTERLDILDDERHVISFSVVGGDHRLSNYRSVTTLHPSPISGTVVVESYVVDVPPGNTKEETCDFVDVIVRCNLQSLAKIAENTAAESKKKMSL
# T1 sequence (Q9CAJ0 23-511 partner): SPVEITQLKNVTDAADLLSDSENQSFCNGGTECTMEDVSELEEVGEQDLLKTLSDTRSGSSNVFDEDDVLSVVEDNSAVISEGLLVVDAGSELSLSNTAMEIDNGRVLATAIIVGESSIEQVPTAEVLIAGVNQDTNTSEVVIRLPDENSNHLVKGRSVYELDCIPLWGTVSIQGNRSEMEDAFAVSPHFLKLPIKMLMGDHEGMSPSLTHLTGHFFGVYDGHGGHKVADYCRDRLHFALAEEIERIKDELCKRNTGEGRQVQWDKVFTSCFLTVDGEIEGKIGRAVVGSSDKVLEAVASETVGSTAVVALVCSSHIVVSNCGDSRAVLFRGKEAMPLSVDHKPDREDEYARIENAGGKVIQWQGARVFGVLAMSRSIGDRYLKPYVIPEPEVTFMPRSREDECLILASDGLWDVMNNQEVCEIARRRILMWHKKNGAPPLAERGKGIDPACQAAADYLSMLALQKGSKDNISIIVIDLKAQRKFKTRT
# Experiment: receptor-mediated PP2C (HAB1) inhibition in vitro assay
# Format: biochemical
# Details: Table VII; read-out: PP2C Dose Curves PYL4 (IC50)
# Summary of the method: (§1)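 Compounds, tested at 25 μM or 50 uM with ABA at 10 uM, were incubated with recombinant receptor and 50 nM GST-HAB1 (2:1 ratio) in MnCl2-containing Tris-OAc buffer, pH 7.9. Phosphatase activity was followed by 4-methylumbelliferyl-phosphate fluorescence.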
row,SMILES,IC50
1,N#Cc1ccc(CS(=O)(=O)NC(=O)C2(c3cccc(C#N)c3)CC2)cc1 [Compound 50],> 50 µM

# Same assay, conditions: compound at 25 μM; control without agonist = 100%
row,SMILES,remaining activity at 25 µM
1,CC(C)(C(=O)NS(=O)(=O)Cc1ccc([N+](=O)[O-])cc1)c1ccccc1 [Compound 3],90%
2,N#Cc1ccc(CS(=O)(=O)NC(=O)C2(c3ccc(F)cc3)CCC2)cc1 [Compound 32],92%
3,N#Cc1ccc(CS(=O)(=O)NC(=O)C2(c3ccccc3F)CCCC2)cc1 [Compound 25],94%
4,N#Cc1ccc(CS(=O)(=O)NC(=O)C2(c3cccc(C#N)c3)CC2)cc1 [Compound 50],67%
5,Cc1cccc(C2(C(=O)NS(=O)(=O)Cc3ccc(C#N)cc3)CCCC2)c1 [Compound 43],95%

# More lines, now with the values ahead:
row,remaining activity at 25 µM,SMILES
1,89%,Cc1ccccc1C1(C(=O)NS(=O)(=O)Cc2ccc(C#N)cc2)CC1 [Compound 44]
2,90%,CC(C)(C(=O)NS(=O)(=O)Cc1ccc(C#N)cc1)c1ccc(Cl)c(Cl)c1 [Compound 7]
3,99%,N#Cc1ccc(CS(=O)(=O)NC(=O)C2(c3cccc(F)c3)CCCC2)cc1 [Compound 26]

# Target: T2, PYL8 (Arabidopsis thaliana, UniProt Q9FGM1)
# T2 construct: 6X-His; made in house; host or cells: E. coli BL21[DE3]pLysS
# T2 sequence (Q9FGM1 1-188): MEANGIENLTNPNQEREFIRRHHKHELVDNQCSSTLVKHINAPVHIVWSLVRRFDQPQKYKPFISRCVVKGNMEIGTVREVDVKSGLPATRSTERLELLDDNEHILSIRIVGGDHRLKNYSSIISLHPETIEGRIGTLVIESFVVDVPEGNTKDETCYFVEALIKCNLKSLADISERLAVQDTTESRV
# T2 sequence (Q9CAJ0 23-511 partner): T1 sequence (Q9CAJ0 23-511 partner)
# Experiment: as above
# Format: biochemical
# Details: Table VII; read-out: PP2C Dose Curves PYL8 (IC50)
# Summary of the method: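 Fluorogenic readout: 4-methylumbelliferyl-phosphate hydrolysis by 50 nM GST-HAB1 plus 2:1 His-receptor; Tris-OAc pH 7.9, NaCl, 1 mM MnCl2, β-ME. Compounds at 25 μM or 50 uM single dose; IC50 from dose curves for selected compounds.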
row,SMILES,IC50
1,CC(C)(C(=O)NS(=O)(=O)Cc1ccc([N+](=O)[O-])cc1)c1ccccc1 [Compound 3],8.58 µM
2,N#Cc1ccc(CS(=O)(=O)NC(=O)C2(c3ccc(F)cc3)CCC2)cc1 [Compound 32],3.23 µM
3,N#Cc1ccc(CS(=O)(=O)NC(=O)C2(c3ccccc3F)CCCC2)cc1 [Compound 25],12.6 µM
4,N#Cc1ccc(CS(=O)(=O)NC(=O)C2(c3cccc(C#N)c3)CC2)cc1 [Compound 50],8.39 µM
5,Cc1cccc(C2(C(=O)NS(=O)(=O)Cc3ccc(C#N)cc3)CCCC2)c1 [Compound 43],22.7 µM
6,CC(C)(C(=O)NS(=O)(=O)Cc1ccc(C#N)cc1)c1ccccc1 [Compound 23],48.9 µM

# More lines, in order of falling IC50, values ahead:
row,IC50,SMILES
1,49.5 µM,Cc1ccccc1C1(C(=O)NS(=O)(=O)Cc2ccc(C#N)cc2)CC1 [Compound 44]
2,40 µM,CC(C)(C(=O)NS(=O)(=O)Cc1ccc(C#N)cc1)c1ccc(Cl)c(Cl)c1 [Compound 7]
3,11.5 µM,N#Cc1ccc(CS(=O)(=O)NC(=O)C2(c3cccc(F)c3)CCCC2)cc1 [Compound 26]

# Same assay, conditions: compound at 25 μM; control without agonist = 100%
row,SMILES,remaining activity at 25 µM
1,CC(C)(C(=O)NS(=O)(=O)Cc1ccc([N+](=O)[O-])cc1)c1ccccc1 [Compound 3],35%
2,N#Cc1ccc(CS(=O)(=O)NC(=O)C2(c3ccc(F)cc3)CCC2)cc1 [Compound 32],24%
3,N#Cc1ccc(CS(=O)(=O)NC(=O)C2(c3ccccc3F)CCCC2)cc1 [Compound 25],37%
4,N#Cc1ccc(CS(=O)(=O)NC(=O)C2(c3cccc(C#N)c3)CC2)cc1 [Compound 50],36%
5,Cc1cccc(C2(C(=O)NS(=O)(=O)Cc3ccc(C#N)cc3)CCCC2)c1 [Compound 43],41%

# More lines, now with the values ahead:
row,remaining activity at 25 µM,SMILES
1,63%,Cc1ccccc1C1(C(=O)NS(=O)(=O)Cc2ccc(C#N)cc2)CC1 [Compound 44]
2,54%,CC(C)(C(=O)NS(=O)(=O)Cc1ccc(C#N)cc1)c1ccc(Cl)c(Cl)c1 [Compound 7]
3,33%,N#Cc1ccc(CS(=O)(=O)NC(=O)C2(c3cccc(F)c3)CCCC2)cc1 [Compound 26]

# Target: T3, PYL6 (Arabidopsis thaliana, UniProt Q8S8E3)
# T3 construct: 6X-His; made in house; host or cells: E. coli BL21[DE3]pLysS
# T3 sequence (Q8S8E3 1-215): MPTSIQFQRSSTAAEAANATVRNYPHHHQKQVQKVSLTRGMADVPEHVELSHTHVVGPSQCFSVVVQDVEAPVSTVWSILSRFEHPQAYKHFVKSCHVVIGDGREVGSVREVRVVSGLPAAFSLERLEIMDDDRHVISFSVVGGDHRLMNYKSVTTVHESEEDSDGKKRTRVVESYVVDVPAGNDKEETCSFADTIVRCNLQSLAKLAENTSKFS
# T3 sequence (Q9CAJ0 23-511 partner): T1 sequence (Q9CAJ0 23-511 partner)
# Experiment: as above
# Format: biochemical
# Details: Table VII; read-out: PP2C Dose Curves PYL6 (IC50)
# Summary of the method: as §1
row,SMILES,IC50
1,CC(C)(C(=O)NS(=O)(=O)Cc1ccc([N+](=O)[O-])cc1)c1ccccc1 [Compound 3],45.5 µM
2,N#Cc1ccc(CS(=O)(=O)NC(=O)C2(c3ccc(F)cc3)CCC2)cc1 [Compound 32],> 50 µM
3,N#Cc1ccc(CS(=O)(=O)NC(=O)C2(c3cccc(C#N)c3)CC2)cc1 [Compound 50],2.43 µM
4,CC(C)(C(=O)NS(=O)(=O)Cc1ccc(C#N)cc1)c1ccccc1 [Compound 23],> 50 µM

# Further lines, results first:
row,IC50,SMILES
1,12.2 µM,Cc1ccccc1C1(C(=O)NS(=O)(=O)Cc2ccc(C#N)cc2)CC1 [Compound 44]
2,> 50 µM,CC(C)(C(=O)NS(=O)(=O)Cc1ccc(C#N)cc1)c1ccc(Cl)c(Cl)c1 [Compound 7]

# Test system: Arabidopsis seed germination and hypocotyl growth
# Experiment: Arabidopsis seed germination and hypocotyl growth
# Format: in vivo
# Details: Arabidopsis thaliana; Table VIII; tested at 10 or 50 μM, ABA at 1 μM; lowest inhibiting concentration; − = none; read-out: Germination Inhibition
# Summary of the method: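 Wild-type seeds germinated on ½× Murashige and Skoog medium with compound at 10 and 50 uM, or in a later series at 1, 5, 10, 25 and 50 uM. Reported value is the lowest tested concentration that inhibited germination or hypocotyl growth in wells where seeds germinated.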
row,SMILES,minimal effective concentration
1,CC(C)(C(=O)NS(=O)(=O)Cc1ccc([N+](=O)[O-])cc1)c1ccccc1 [Compound 3],50 µM
2,CC(C)(C(=O)NS(=O)(=O)Cc1ccc(C#N)cc1)c1ccc(Cl)c(Cl)c1 [Compound 7],50 µM
3,N#Cc1ccc(CS(=O)(=O)NC(=O)C2(c3ccc(F)cc3)CCC2)cc1 [Compound 32],50 µM
4,N#Cc1ccc(CS(=O)(=O)NC(=O)C2(c3ccccc3F)CCCC2)cc1 [Compound 25],50 µM
5,Cc1cccc(C2(C(=O)NS(=O)(=O)Cc3ccc(C#N)cc3)CCCC2)c1 [Compound 43],50 µM
6,CC(C)(C(=O)NS(=O)(=O)Cc1ccc(C#N)cc1)c1ccccc1 [Compound 23],50 µM
7,N#Cc1ccc(CS(=O)(=O)NC(=O)C2(c3cccc(F)c3)CCCC2)cc1 [Compound 26],50 µM

# Same assay, conditions: Arabidopsis thaliana; Table VIII; tested at 10 or 50 μM; lowest inhibiting concentration; − = none; read-out: Hypocotyl Growth Inhibition
row,SMILES,minimal effective concentration
1,Cc1ccccc1C1(C(=O)NS(=O)(=O)Cc2ccc(C#N)cc2)CC1 [Compound 44],50 µM
2,CC(C)(C(=O)NS(=O)(=O)Cc1ccc([N+](=O)[O-])cc1)c1ccccc1 [Compound 3],10 µM
3,CC(C)(C(=O)NS(=O)(=O)Cc1ccc(C#N)cc1)c1ccc(Cl)c(Cl)c1 [Compound 7],10 µM
4,N#Cc1ccc(CS(=O)(=O)NC(=O)C2(c3ccc(F)cc3)CCC2)cc1 [Compound 32],10 µM
5,N#Cc1ccc(CS(=O)(=O)NC(=O)C2(c3ccccc3F)CCCC2)cc1 [Compound 25],10 µM
6,Cc1cccc(C2(C(=O)NS(=O)(=O)Cc3ccc(C#N)cc3)CCCC2)c1 [Compound 43],10 µM
7,CC(C)(C(=O)NS(=O)(=O)Cc1ccc(C#N)cc1)c1ccccc1 [Compound 23],10 µM
8,N#Cc1ccc(CS(=O)(=O)NC(=O)C2(c3cccc(F)c3)CCCC2)cc1 [Compound 26],10 µM

# Same assay, conditions: Germination Inhibition II; tested at 10 and 50 uM; lowest concentration that inhibited hypocotyl growth in wells where seeds germinated; − = none
row,SMILES,Hypocotyl Growth Inhibition
1,Cc1ccccc1C1(C(=O)NS(=O)(=O)Cc2ccc(C#N)cc2)CC1 [Compound 44],50 µM
2,CC(C)(C(=O)NS(=O)(=O)Cc1ccc([N+](=O)[O-])cc1)c1ccccc1 [Compound 3],10 µM
3,CC(C)(C(=O)NS(=O)(=O)Cc1ccc(C#N)cc1)c1ccc(Cl)c(Cl)c1 [Compound 7],10 µM
4,N#Cc1ccc(CS(=O)(=O)NC(=O)C2(c3ccc(F)cc3)CCC2)cc1 [Compound 32],10 µM
5,N#Cc1ccc(CS(=O)(=O)NC(=O)C2(c3ccccc3F)CCCC2)cc1 [Compound 25],10 µM
6,Cc1cccc(C2(C(=O)NS(=O)(=O)Cc3ccc(C#N)cc3)CCCC2)c1 [Compound 43],10 µM
7,CC(C)(C(=O)NS(=O)(=O)Cc1ccc(C#N)cc1)c1ccccc1 [Compound 23],10 µM
8,N#Cc1ccc(CS(=O)(=O)NC(=O)C2(c3cccc(F)c3)CCCC2)cc1 [Compound 26],10 µM

# Same assay, conditions: Germination Inhibition II; tested at 10 and 50 uM; lowest of the two concentrations that inhibited; − = none
row,SMILES,Germination Inhibition
1,CC(C)(C(=O)NS(=O)(=O)Cc1ccc([N+](=O)[O-])cc1)c1ccccc1 [Compound 3],50 µM
2,CC(C)(C(=O)NS(=O)(=O)Cc1ccc(C#N)cc1)c1ccc(Cl)c(Cl)c1 [Compound 7],50 µM
3,N#Cc1ccc(CS(=O)(=O)NC(=O)C2(c3ccc(F)cc3)CCC2)cc1 [Compound 32],50 µM
4,N#Cc1ccc(CS(=O)(=O)NC(=O)C2(c3ccccc3F)CCCC2)cc1 [Compound 25],50 µM
5,Cc1cccc(C2(C(=O)NS(=O)(=O)Cc3ccc(C#N)cc3)CCCC2)c1 [Compound 43],50 µM
6,CC(C)(C(=O)NS(=O)(=O)Cc1ccc(C#N)cc1)c1ccccc1 [Compound 23],50 µM
7,N#Cc1ccc(CS(=O)(=O)NC(=O)C2(c3cccc(F)c3)CCCC2)cc1 [Compound 26],50 µM
